Assay results taken from BindingDB's records for doi:10.1016/j.bmcl.2015.04.057 (Merck Research Laboratories, 2015).

Key:
[1] = target: T1, Coagulation factor IX (Homo sapiens, UniProt P00740); experiment: (§1) Inhibition of human coagulation factor 9a using fluorescent peptide CH3SO2-D-CHG-Gly-Arg-AFC-AcoH as substrate
[2] = target: T1, Coagulation factor IX; experiment: as §1; remark: listed apart in the source

T1 sequence (P00740 47-191 limits assumed): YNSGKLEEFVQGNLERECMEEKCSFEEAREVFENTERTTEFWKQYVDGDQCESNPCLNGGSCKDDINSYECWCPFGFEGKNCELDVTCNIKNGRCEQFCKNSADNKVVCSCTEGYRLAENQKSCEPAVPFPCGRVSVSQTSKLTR
T1 sequence (P00740 227-461 limits assumed): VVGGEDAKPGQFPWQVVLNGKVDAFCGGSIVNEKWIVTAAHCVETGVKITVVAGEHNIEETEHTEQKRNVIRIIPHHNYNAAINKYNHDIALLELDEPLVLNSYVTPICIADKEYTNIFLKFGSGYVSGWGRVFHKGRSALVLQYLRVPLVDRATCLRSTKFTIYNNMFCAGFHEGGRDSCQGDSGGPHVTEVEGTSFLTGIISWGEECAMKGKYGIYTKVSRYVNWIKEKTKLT

Ki [1]: 15 nM
Ki [2]: 15.4 nM
SMILES: Cc1cc2nc([C@@H](CNC(=O)c3c(Cl)cc(-n4cnnc4)cc3Cl)c3ccccc3)[nH]c2cc1C
